This test relates to K24384-001-R-PDC complex spheroid growth. Description: Anticancer human tumor K24384-001-R-PDC patient-derived pancreatic adenocarcinoma cell line growth inhibition [AhR]. As to conditions: for viability, T/C: stronger effect = lower value. In outline:
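Agents were dosed in half-log steps down from roughly clinical Cmax, or from 10 microM where Cmax was unknown, alone and with AhR antagonists. Read-out: percent test/control growth of tumor spheroids containing HUVEC and MSC stromal cells.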

The mark [1] stands for this setting: curve of first compound, second compound 0.1 µM.
Setting [2] is: curve of first compound, second compound 0.316 µM.
Setting [3] is: curve of first compound, second compound 1 µM.
Where [4] appears, read: curve of first compound, second compound 3.16 µM.
[5] abbreviates: curve of first compound, second compound 10 µM.
Where [6] appears, read: second compound 0.1 µM, first compound 0.00949 µM.
[7] abbreviates: second compound 0.1 µM, first compound 0.03 µM.
Where [8] appears, read: second compound 0.1 µM, first compound 0.0949 µM.
Setting [9] is: second compound 0.1 µM, first compound 0.3 µM.
The mark [10] stands for this setting: second compound 0.316 µM, first compound 0.00949 µM.
The mark [11] stands for this setting: second compound 0.316 µM, first compound 0.03 µM.
Setting [12] is: second compound 0.316 µM, first compound 0.0949 µM.
Setting [13] is: second compound 0.316 µM, first compound 0.3 µM.
The mark [14] stands for this setting: second compound 1 µM, first compound 0.00949 µM.
Setting [15] is: second compound 1 µM, first compound 0.03 µM.
[16] abbreviates: second compound 1 µM, first compound 0.0949 µM.
Setting [17] is: second compound 1 µM, first compound 0.3 µM.
The mark [18] stands for this setting: second compound 3.16 µM, first compound 0.00949 µM.
[19] abbreviates: second compound 3.16 µM, first compound 0.03 µM.
[20] abbreviates: second compound 3.16 µM, first compound 0.0949 µM.
[21] abbreviates: second compound 3.16 µM, first compound 0.3 µM.
[22] abbreviates: second compound 10 µM, first compound 0.00949 µM.
Setting [23] is: second compound 10 µM, first compound 0.03 µM.
[24] abbreviates: second compound 10 µM, first compound 0.0949 µM.
Where [25] appears, read: second compound 10 µM, first compound 0.3 µM.

Values joined by “and” are separate entries in the source; they are usually repeats but may differ in a detail not shown here. Equal entries are not always repeated.

As a reminder, the viability, T/C is the result in the treated group divided by that in the control group, in per cent. As a reminder, the IC50 is the concentration needed to halve the response being measured.
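Wherever viability, T/C is given: percent of DMSO vehicle-treated spheroid viability set as 100%.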

With `COc1cc(Nc2ncc3c(n2)-c2ccc(Cl)cc2C(c2c(F)cccc2OC)=NC3)ccc1C(=O)O`, the viability, T/C reads like this: (compound 0.0316 µM) 97.3% and 91.9% and 85.7%; (compound 0.1 µM) 68.5% and 72.4% and 74.3%; (compound 0.316 µM) 63.9% and 60% and 69.9%; (compound 1 µM) 44.3% and 55.1% and 50.6%; (compound 3.16 µM) 52.4% and 54.8% and 52.6%; (compound 10 µM) 55.5% and 62.7% and 57%. Under “curve of compound”, the IC50 is > 10000 nM.
Consider `CCN(c1cc(-c2ccc(CN3CCOCC3)cc2)cc(C(=O)NCc2c(C)cc(C)[nH]c2=O)c1C)C1CCOCC1` + CC(CO)NC(=O)c1cc(-c2ccc(Cl)cc2)nn(-c2cnn(C)c2)c1=O, for which the IC50 is > 3000 nM under setting [1]; > 3000 nM under setting [2]; > 3000 nM under setting [3]; > 3000 nM under setting [4]; > 3000 nM under setting [5]. Moreover, the viability, T/C by setting is: under setting [6], 119%; under setting [7], 125%; under setting [8], 122%; under setting [9], 107%; (second compound 0.1 µM, first compound 0.949 µM) 95.4%; (second compound 0.1 µM, first compound 3 µM) 91.8%. The viability, T/C is, setting by setting: under setting [10], 117%; under setting [11], 135%; under setting [12], 125%; under setting [13], 120%; (second compound 0.316 µM, first compound 0.949 µM) 98.2%; (second compound 0.316 µM, first compound 3 µM) 98.9%. The viability, T/C is, setting by setting: under setting [14], 107%; under setting [15], 139%; under setting [16], 154%; under setting [17], 144%; (second compound 1 µM, first compound 0.949 µM) 102%; (second compound 1 µM, first compound 3 µM) 90.8%. Moreover, the viability, T/C runs as follows: under setting [18], 122%; under setting [19], 123%; under setting [20], 113%; under setting [21], 119%; (second compound 3.16 µM, first compound 0.949 µM) 113%; (second compound 3.16 µM, first compound 3 µM) 119%. Besides, the viability, T/C under setting [22] was 117%; the viability, T/C under setting [23] was 123%; the viability, T/C under setting [24] is 118%; the viability, T/C under setting [25] was 107%; the viability, T/C (second compound 10 µM, first compound 0.949 µM) is 99.4%; the viability, T/C (second compound 10 µM, first compound 3 µM) is 102%.
For `Nc1ncn(C2CC(O)C(CO)O2)c(=O)n1` (stereo not drawn) + Cc1cncc(-c2nc(NCCc3c[nH]c4ccccc34)c3ncn(C(C)C)c3n2)c1, the IC50 reads like this: under setting [1], > 1000 nM; under setting [2], > 1000 nM; under setting [3], > 1000 nM; under setting [4], > 1000 nM; under setting [5], < 3.16 nM. Besides, the viability, T/C is, setting by setting: (second compound 0.1 µM, first compound 0.00316 µM) 83.2%; (second compound 0.1 µM, first compound 0.01 µM) 97.6%; (second compound 0.1 µM, first compound 0.0316 µM) 92.8%; (second compound 0.1 µM, first compound 0.1 µM) 77.5%; (second compound 0.1 µM, first compound 0.316 µM) 62.8%; (second compound 0.1 µM, first compound 1 µM) 51.1%. The viability, T/C runs as follows: (second compound 0.316 µM, first compound 0.00316 µM) 91.1%; (second compound 0.316 µM, first compound 0.01 µM) 101%; (second compound 0.316 µM, first compound 0.0316 µM) 95.8%; (second compound 0.316 µM, first compound 0.1 µM) 77.7%; (second compound 0.316 µM, first compound 0.316 µM) 72.2%; (second compound 0.316 µM, first compound 1 µM) 63.6%. The viability, T/C is, setting by setting: (second compound 1 µM, first compound 0.00316 µM) 80.2%; (second compound 1 µM, first compound 0.01 µM) 101%; (second compound 1 µM, first compound 0.0316 µM) 103%; (second compound 1 µM, first compound 0.1 µM) 82.5%; (second compound 1 µM, first compound 0.316 µM) 99.4%; (second compound 1 µM, first compound 1 µM) 66%. For the same molecule, the viability, T/C (second compound 3.16 µM, first compound 0.00316 µM) was 83.1%; the viability, T/C (second compound 3.16 µM, first compound 0.01 µM) was 100%; the viability, T/C (second compound 3.16 µM, first compound 0.0316 µM) is 87.8%; the viability, T/C (second compound 3.16 µM, first compound 0.1 µM) was 66.8%; the viability, T/C (second compound 3.16 µM, first compound 0.316 µM) is 67.9%; the viability, T/C (second compound 3.16 µM, first compound 1 µM) was 70.2%. For the same molecule, the viability, T/C is, setting by setting: (second compound 10 µM, first compound 0.00316 µM) 13.3%; (second compound 10 µM, first compound 0.01 µM) 14.3%; (second compound 10 µM, first compound 0.0316 µM) 14.8%; (second compound 10 µM, first compound 0.1 µM) 10.8%; (second compound 10 µM, first compound 0.316 µM) 8.89%; (second compound 10 µM, first compound 1 µM) 11.4%.
Regarding `Cc1ccccc1N=Nc1ccc(NC(=O)c2ccnn2C)c(C)c1`, the IC50 (compound alone, run of 06/14/2022) was > 10000 nM.
As for `CCc1c2c(nc3ccc(O)cc13)-c1cc3c(c(=O)n1C2)COC(=O)[C@]3(O)CC` + Cc1ccccc1N=Nc1ccc(NC(=O)c2ccnn2C)c(C)c1, the IC50 runs as follows: under setting [1], 8.69 nM; under setting [2], 29.2 nM; under setting [3], 8.68 nM; under setting [4], 19.8 nM; under setting [5], 68 nM. The viability, T/C by setting is: (second compound 0.1 µM, first compound 0.000949 µM) 74.2%; (second compound 0.1 µM, first compound 0.003 µM) 72.8%; under setting [6], 48.1%; under setting [7], 48.9%; under setting [8], 49.8%; under setting [9], 36.7%. The viability, T/C was 96.2% (second compound 0.316 µM, first compound 0.000949 µM); 77.7% (second compound 0.316 µM, first compound 0.003 µM); 58.1% under setting [10]; 51.6% under setting [11]; 41.9% under setting [12]; 31.4% under setting [13]. In addition, the viability, T/C is, setting by setting: (second compound 1 µM, first compound 0.000949 µM) 77.4%; (second compound 1 µM, first compound 0.003 µM) 100%; under setting [14], 46.7%; under setting [15], 45.2%; under setting [16], 47.6%; under setting [17], 30.8%. The viability, T/C (second compound 3.16 µM, first compound 0.000949 µM) was 73.3%; the viability, T/C (second compound 3.16 µM, first compound 0.003 µM) was 62%; the viability, T/C under setting [18] is 55.6%; the viability, T/C under setting [19] is 46.1%; the viability, T/C under setting [20] is 41.5%; the viability, T/C under setting [21] is 30%. In addition, the viability, T/C by setting is: (second compound 10 µM, first compound 0.000949 µM) 94%; (second compound 10 µM, first compound 0.003 µM) 82%; under setting [22], 64.3%; under setting [23], 65.7%; under setting [24], 48.6%; under setting [25], 29.3%.

The values above are taken from PubChem BioAssay AID1919009 (Molecular Pharmacology Branch, DTP, NCI, 2023).
